Measurements taken from patent US7238716B2, “Alkanoic acid derivatives process for their production and use thereof” (Takeda Pharmaceuticals Company Limited, priority 2000, dated 2007).
Like-named read-outs stand apart in the source and are kept apart here.

Columns and labels:
[1] = system: KKAY mice; experiment: Hypoglycemic and hypolipidemic actions in mice (Test Example 1); type: in vivo; settings: Mus musculus, po, 96 h, 0.005% in powdery diet, four days
Excerpt: Test compounds were mixed in a powdery diet (CE-2, Japan Clea) at the concentration of 0.01% (compounds of Examples 7, 26, 29, 32) or 0.005% (compounds of Examples 1, 11, 15, 18, 24, 36, 37, 41, 48, 50, 51, 52, 58, 62, 79, 83, 88, 90, 91, 92, 93, 97, 107, 110, 115, 119, 122, 125, 129 and 130), and freely given to KKAY mice (11 to 12 weeks old, 5 mice in a group), a model of type 2 diabetes mellitus, for four days. During this period, water was given freely. Blood was sampled from orbital venous plexus, and glucose and triglyceride levels in plasma separated from blood were determined enzymatically using L type Wako Glu2 (Wako Pure Chemical Industries, Ltd.) or L type Wako TG.H (Wako Pure Chemical Industries, Ltd.), respectively.
In the Table, “hypoglycemic action (%)” means a percent reduction (%) of the glucose level in the test compound administration group when that of the test compound non-administration group is taken as 100%. In addition, the “hypolipidemic action (%)” means a percent reduction (%) of the triglyceride level in the test compound administration group when that of the test compound non-administration group is taken as 100%.

[2] = molecular target: T1, PPARγ-RXRα heterodimer (Homo sapiens, UniProt P37231); experiment: PPARγ-RXRα heterodimer ligand activity, luciferase reporter in PPARγ:RXRα:4ERPP/CHO-K1 cells (Test Example 3); type: cell-based; settings: concentration for 50% of the maximum fold induction of luciferase activity; 48 hours, CHO-K1 cells
T1 construct: expressed in transfected cells; host or cells: CHO-K1
T1 sequence (P37231 1-477 isoform P37231-2): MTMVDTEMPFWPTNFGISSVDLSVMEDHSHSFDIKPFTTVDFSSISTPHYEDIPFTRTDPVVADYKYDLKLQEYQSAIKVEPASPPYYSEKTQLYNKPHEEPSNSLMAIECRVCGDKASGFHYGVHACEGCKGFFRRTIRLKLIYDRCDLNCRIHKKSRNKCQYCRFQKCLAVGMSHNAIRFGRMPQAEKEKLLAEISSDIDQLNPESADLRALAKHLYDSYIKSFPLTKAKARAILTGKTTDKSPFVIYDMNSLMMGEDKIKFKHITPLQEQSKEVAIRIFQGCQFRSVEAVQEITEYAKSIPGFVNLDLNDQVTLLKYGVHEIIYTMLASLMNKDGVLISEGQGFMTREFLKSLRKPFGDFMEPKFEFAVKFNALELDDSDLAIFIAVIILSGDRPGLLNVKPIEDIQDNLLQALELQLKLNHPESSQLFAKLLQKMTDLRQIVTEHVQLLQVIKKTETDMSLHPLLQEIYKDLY
T1 sequence (P19793 1-462 partner): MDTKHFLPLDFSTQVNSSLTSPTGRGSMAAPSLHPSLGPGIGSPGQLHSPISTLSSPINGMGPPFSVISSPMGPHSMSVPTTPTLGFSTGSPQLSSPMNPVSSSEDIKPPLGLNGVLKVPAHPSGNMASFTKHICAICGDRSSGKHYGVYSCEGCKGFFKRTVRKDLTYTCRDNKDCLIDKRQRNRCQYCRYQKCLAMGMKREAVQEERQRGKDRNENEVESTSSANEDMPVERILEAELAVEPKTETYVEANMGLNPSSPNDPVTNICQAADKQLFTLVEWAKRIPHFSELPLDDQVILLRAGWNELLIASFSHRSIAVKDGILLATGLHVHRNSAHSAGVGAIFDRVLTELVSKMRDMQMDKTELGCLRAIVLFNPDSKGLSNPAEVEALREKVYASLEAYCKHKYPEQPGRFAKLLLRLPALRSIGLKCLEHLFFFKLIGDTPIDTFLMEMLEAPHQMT
Procedure: A PPARγ:RXRα:4ERPP/CHO-K1 cells obtained in Reference Example 5 described later were cultured in HAM F12 medium (produced by NISSUI SEIYAKU) containing 10% Fetal bovine serum (produced by Life Technologies, Inc., USA) and then inoculated to a 96-well white plate (produced by Corning Costar Corporation, USA) at the density of 2×10^4 cells/well, and cultured in a CO2 gas incubator at 37° C. overnight.
After washing the 96 well white plate with PBS (Phosphate-buffered saline), 90 μl of HAM F12 medium containing 0.1% fatty acid-free bovine serum albumin (BSA) and 10 μl of test compound were added, which was cultured in a CO2 gas incubator at 37° C. for 48 hours. After removing the medium, 40 μl of PIKKAGENE 7.5 (produced by Wako Pure Chemical Industries, Ltd.) was added. After stirring, the luciferase activity was determined using Lumistar (produced by BMG Labtechnologies GmbH, Germany).
A fold induction was calculated based on the luciferase activity of each test compound by taking the luciferase activity in the test compound non administration group as 1. The values of the test compound, concentration and the fold induction were analyzed using PRISM 2.01 (produced by GraphPad Software Inc. USA) to calculate the EC50 values, the effective concentration of a test compound for 50% of the maximum fold induction.
After a CHO-K1 cell cultured in a 750 ml tissue culture flask (produced by Corning-Costar Corporation, USA) containing HAM F12 medium (produced by NISSUI SEIYAKU) supplemented with 10% Fetal Bovine Serum (produced by Life Technologies, Inc., USA) was scraped by treating with 0.5 g/L trypsin-0.2 g/L EDTA (ethylenediaminetetraacetic acid) (produced by Life Technologies, Inc., USA), the cell was washed with PBS (phosphate buffered saline) (produced by Life Technologies, Inc., USA), centrifuged (1000 rpm, 5 minutes), and then suspended in PBS. Subsequently, a DNA was introduced into the cell under the condition shown below using GENE PULSER (produced by Bio-Rad Laboratories, USA).
Namely, to a cuvette having a 0.4 cm gap, added were 8×10^6 cells and 10 μg of plasmid pVgRXR2-hPPARγ obtained in Reference Example 3 and 10 μg of reporter plasmid pGL3-4ERPP-TK neo obtained in Reference Example 4, which was subjected to electroporation at the voltage of 0.25 kV under the capacitance of 960 μF. Subsequently, the cell was transferred into a HAM F12 medium containing 10% Fetal Bovine. Serum and cultured for 24 hours. Then the cell was scraped again and centrifuged, and then suspended in HAM F12 medium containing 10% Fetal Bovine Serum supplemented with 500 μg/ml of GENETICIN (produced by Life Technologies, Inc., USA) and 250 μg/ml of ZEOCIN (produced by Invitrogen, USA). The suspension was diluted to the density of 10^4 cells/ml, and inoculated to a 96-well plate (produced by Corning Costar Corporation, USA), which was cultured in a CO2 gas incubator at 37° C., whereby obtaining a GENETICIN- and ZEOCIN-resistant transformant.
Subsequently, after the transformant cell line thus obtained was cultured in a 24-well plate (produced by Corning Costar Corporation, USA), selected was a cell line, PPARγ:RXRα:4ERPP/CHO-K1 cell, in which the luciferase was expressed and induced by addition of 10 μM pioglitazone hydrochloride.

[3] = percent reduction of plasma glucose level vs non-administration group, read-out: hypoglycemic action (%)
[4] = percent reduction of plasma triglyceride level vs non-administration group, read-out: hypolipidemic action (%)

Structure (SMILES)	melting point [°C]	inhibition in vivo at 0.005 % [1, 3] [%]	inhibition in vivo at 0.005 % [1, 4] [%]	EC50 [2] [nM]
Cc1sc(-c2ccccc2)nc1COc1cc(COc2ncccc2CC(=O)O)on1 [Example 115, 2-[2-[[3-[(5-methyl-2-phenyl-4-thiazolyl)methoxy]-5-isoxazolyl]methoxy]-3-pyridyl]acetic acid]	109 to 110	52	87	70
CCOc1cc(OCc2cccc(OCc3nc(-c4ccccc4)oc3C)c2)ccc1CCC(=O)O [Example 71, 3-[2-ethoxy-4-[3-[(5-methyl-2-phenyl-4-oxazolyl)methoxy]benzyloxy]phenyl]propionic acid]	122 to 123	–	–	330
Cc1sc(-c2ccccc2)nc1COc1ccc(COc2ccccc2CC(=O)O)cn1 [Example 122, 2-[2-[[6-[(5-methyl-2-phenyl-4-thiazolyl)methoxy]-3-pyridyl]methoxy]phenyl]acetic acid]	173 to 174	52	67	17
Cc1oc(-c2ccccc2)nc1CCc1nc(COc2cccc(CC(=O)O)c2)co1 [Example 101, 2-[3-[[2-[2-(5-methyl-2-phenyl-4-oxazolyl)ethyl]-4-oxazolyl]methoxy]phenyl]acetic acid]	127 to 128	–	–	43
Cc1oc(-c2ccccc2)nc1COc1cncc(COc2cccc(CC(=O)O)c2)c1 [Example 78, 2-[3-[5-[(5-methyl-2-phenyl-4-oxazolyl)methoxy]-3-pyridylmethoxy]phenyl]acetic acid]	143 to 144	–	–	190
CCCc1oc(-c2ccccc2)nc1COc1ccc(COc2ccccc2CC(=O)O)cc1 [Example 85, 2-[2-[4-[(2-phenyl-5-propyl-4-oxazolyl)methoxy]benzyloxy]phenyl]acetic acid]	129 to 130	–	–	260
Cc1oc(-c2ccccc2)nc1CCOc1ccc(COc2ccccc2CC(=O)O)cn1 [Example 119, 2-[2-[[6-[2-(5-methyl-2-phenyl-4-oxazolyl)ethoxy]-3-pyridyl]methoxy]phenyl]acetic acid]	159 to 160	40	33	220
Cc1nn(-c2ccccn2)cc1COc1ccc(COc2ncccc2CC(=O)O)cc1 [Example 126, 2-[2-[4-[[3-methyl-1-(2-pyridyl)-1H-pyrazol-4-yl]methoxy]benzyloxy]-3-pyridyl]acetic acid]	150 to 151	–	–	1700
CCCc1ccc(OCc2ccc(OCc3nc(-c4ccccc4)oc3C)cc2)c(CC(=O)O)c1 [Example 83, 2-[2-[4-[(5-methyl-2-phenyl-4-oxazolyl)methoxy]benzyloxy]-5-propylphenyl]acetic acid]	116 to 117	48	43	110
Cc1oc(-c2ccco2)nc1COc1cc(COc2cccc(CC(=O)O)c2)ccn1 [Example 90]	136 to 137	30	40	52
Cc1oc(-c2ccco2)nc1COc1ccc(COc2ccccc2CC(=O)O)cn1 [Example 124]	119 to 120	–	–	42
Cc1oc(-c2ccccc2)nc1COc1ccc(OCc2ncccc2CC(=O)O)cc1 [Example 125, 2-[2-[[4-[(5-methyl-2-phenyl-4-oxazolyl)methoxy]phenoxy]methyl]-3-pyridyl]acetic acid]	126 to 127	41	40	130
CCOc1cc(OCc2ccc(OCc3nc(-c4ccccc4)oc3C)cc2)ccc1CCC(=O)O [Example 66, 3-[2-ethoxy-4-[4-[(5-methyl-2-phenyl-4-oxazolyl)methoxy]benzyloxy]phenyl]propionic acid]	135 to 136	–	–	940
COc1ccc(COc2cccc(CC(=O)O)c2)cc1OCc1nc(-c2ccccc2)oc1C [Example 132, 3-[4-methoxy-3-[(2-phenyl-5-methyl-4-oxazolyl)methoxy]benzyloxy]phenylacetic acid]	114 to 115	–	–	110
Cc1oc(-c2ccccc2)nc1CCc1nc(COc2ccccc2CC(=O)O)co1 [Example 99, 2-[2-[[2-[2-(5-methyl-2-phenyl-4-oxazolyl)ethyl]-4-oxazolyl]methoxy]phenyl]acetic acid]	109 to 110	–	–	160
